Measurements reported in patent US7326700B2, “Cyclohexenyl phenyl carboxamides tocolytic oxytocin receptor antagonists” (Wyeth, priority 2001, dated 2008).
Counter-ions that a name gives are not always drawn.

The compounds below were run against T1, human vasopressin V2 receptor subtype (Homo sapiens, UniProt P30518) (assay: Vasopressin binding in CHO cell membranes expressing human vasopressin V2 subtype receptors ([3H]arginine vasopressin radioligand binding)). Conditions: 100 nM.
T1 construct: host or cells: CHO cells, stably transfected (pZeoSV vector)
T1 sequence (P30518 whole entry): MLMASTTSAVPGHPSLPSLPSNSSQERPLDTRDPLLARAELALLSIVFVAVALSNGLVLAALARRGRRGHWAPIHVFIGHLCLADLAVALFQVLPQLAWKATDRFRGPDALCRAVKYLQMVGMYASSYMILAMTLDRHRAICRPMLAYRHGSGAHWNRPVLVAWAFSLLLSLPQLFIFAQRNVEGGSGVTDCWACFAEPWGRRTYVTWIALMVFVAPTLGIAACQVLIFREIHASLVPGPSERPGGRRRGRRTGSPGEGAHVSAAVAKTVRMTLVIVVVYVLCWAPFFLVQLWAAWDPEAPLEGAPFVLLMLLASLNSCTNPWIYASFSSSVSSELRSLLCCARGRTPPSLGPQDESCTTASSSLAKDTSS
Text: Chinese Hamster Ovary (CHO) cells stably transfected with the human V2 subtype receptors were obtained from M. Thibonnier, Case Western Reserve University School of Medicine, Cleveland, Ohio.
CHO cells transfected with the human vasopressin V2 subtype receptors obtained from M. Thibonnier (pZeoSV vector) are allowed to grow to confluency (approx. >90%) in T-150 flasks under sterile conditions, in a cell culture medium consisting of F-12 Nutrient Mixture (HAM) with L-glutamine (Gibco Cat. #11765-054) containing 15 mM HEPES (Gibco Cat. #15630-080), 1% antibiotic/antimycotic (add 5 mL 100×, Gibco Cat. #15240-062 per 500 mL F-12), 250 μg/mL Zeocin (add 1.25 mL of 100 mg/mL Invitrogen R-250-01 per 500 mL F-12) and 10% Fetal Bovine Serum (Qualified, heat inactivated, Gibco Cat. #16140-063). The medium is removed by aspiration and the cells washed with 10 mL of Hank's Balanced Salt solution (Gibco Cat. #14175-095). The salt solution is removed by aspiration and the cells trypsinized with 5 mL of trypsin-EDTA (0.05% trypsin, 0.53 mM EDTA-4Na, Gibco Cat. #25300-070) for 1 min. The trypsin is removed by aspiration and the cells dislodged by tapping. Cell Culture medium (e.g. 30 mL for 1:30 split) is immediately added and mixed well to inactivate trypsin. 1 mL of detached cells is added to new culture flasks containing fresh Cell Culture medium (e.g. into 25 mL per T-150 flask), and mixed gently. The cells are incubated at 37° C. in 5% CO2. The medium is changed at 3 to 4 day interval (or as appropriate). The cells grow to confluency (approx. >75%-95%) within 7-8 days. All steps are done under sterile conditions.
The cells are washed twice gently with Hank's Balanced Salt solution (e.g. use 10 mL per T-150 flask). The excess solution is removed and the cells bathed for 15-30 min. in an enzyme-free Cell Dissociation Buffer (e.g. use 8 mL Hank's Based, Gibco Cat. #13150-016 per T-150 flask) until cells are loosened. The contents are transferred to centrifuge tubes (50 mL) kept in an ice bath. All subsequent steps are done at 4° C. The tubes are centrifuged at 300×g for 15 min (1380 rpm on SORVAL, Model RT6000D, using the rotor for 50 mL tubes). The supernatant is discarded and the cells suspended in homogeneizing buffer(10 mM Tris-HCl containing 0.25 M sucrose and 1 mM EDTA, pH 7.4) ensuring that the volume of the buffer is about ten times the volume of the cell pellet. The cells are pooled into a centrifuge tube (50 mL) and homogenized with Polytron at setting 6 for 10 sec. The homogenate is transferred into a Potter-Elvjehm homogeneizer and homogenized with 3 strokes. The homogenate is centrifuged at 1500×g for 60 min at 4° C. (3100 rpm using SORVAL, model RT6000D, using the rotor for 50 mL tubes). The pellet is discarded. The supernatant is centrifuged at 100,000×g for 60 min. at 4° C. (Beckman L8-80M ultracentrifuge; spin at 37,500 rpm with rotor type 70 Ti for 50 mL tubes; 38,000 rpm with type 80 Ti for 15 mL tubes; or 35,800 rpm with rotor type 45Ti). The supernantant is discarded and the pellet suspended in 3 to 4 mL of Tris buffer (50 mM TRIS-HCl, pH 7.4). The protein content is estimated by the Bradford or Lowry method. The volume of the membrane suspension is adjusted with the membrane buffer (50 mM Tris-HCl containing 0.1% BSA and 0.1 mM PMSF) to give 3.0 mg/mL (or as appropriate) of protein. The membranes are aliquoted and stored at −70° C.
In wells of a 96-well format microtiter plate, is added 90, 110 or 130 μL (to make up a final volume of 200 μL) of assay buffer containing 50 mM of Tris-HCl (pH 7.4), […], 1 mg % aprotinin, 1 mg % leupeptin, 2 mg % 1,10-phenanthroline, 10 mg % trypsin inhibitor, and 0.1 mM PMSF. The inhibitors are added on the day of the experiment. The components are mixed at room temperature, and then kept in ice bath following adjustment of the pH to 7.4. […]

Q: `COc1cc(C2=CCCCC2)c(Cl)cc1C(=O)N1Cc2ccc(C(=O)N(C)CCCN(C)C)n2Cc2ccccc21` [Example 2, 10-(5-Chloro-4-cyclohex-1-en-1-yl-2-methoxybenzoyl)-N-[3-(dimethylamino)propyl]-N-methyl-10,11-dihydro-5H-pyrrolo[2,1-c][1,4]benzodiazepine-3-carboxamide] was tested. Which inhibition at 0.1 µM did it give?
A: 4%

Q: For `Cc1cc(C(=O)N2Cc3ccc(C(=O)N4CCN(C)CC4)n3Cc3ccccc32)ccc1C1=CCCCC1` [Example 4, [10-(4-Cyclohex-1-en-1-yl-3-methyl-benzoyl)-10,11-dihydro-5H-pyrrolo[2,1-c][1,4]benzodiazepin-3-yl]-(4-methyl-piperazin-1-yl)-methanone], which inhibition at 0.1 µM is on record?
A: 11%

Q: With `Cc1cc(C(=O)N2Cc3ccc(C(=O)N4CCN(CCCN(C)C)CC4)n3Cc3ccccc32)ccc1C1=CCCCC1` [Example 5, [10-(4-Cyclohex-1-en-1-yl-3-methyl-benzoyl)-10,11-dihydro-5H-pyrrolo[2,1-c][1,4]benzodiazepin-3-yl]-[4-(3-dimethylamino-propyl)-piperazin-1-yl]-methanone] as the compound, how does the inhibition at 0.1 µM read?
A: 19%

Q: For `Cc1cc(C(=O)N2Cc3ccc(C(=O)N4CCN(C)CC4)n3Cc3ccccc32)ccc1C1=CCCc2ccccc21` [Example 6, {10-[4-(3,4-Dihydro-naphthalen-1-yl)-3-methyl-benzoyl]-10,11-dihydro-5H-benzo[e]pyrrolo[1,2-a][1,4]diazepin-3-yl}-(4-methyl-piperazin-1-yl)-methanone], which inhibition at 0.1 µM is on record?
A: 17%

Q: `Cc1cc(C(=O)N2Cc3ccc(C(=O)N4CCN(CCCN(C)C)CC4)n3Cc3ccccc32)ccc1C1=CCCc2ccccc21` [Example 7, {10-[4-(3,4-Dihydro-naphthalen-1-yl)-3-methyl-benzoyl]-10,11-dihydro-5H-pyrrolo[2,1-c][1,4]benzodiazepin-3-yl}-[4-(3-dimethylamino-propyl)-piperazin-1-yl]-methanone] was tested. Which inhibition at 0.1 µM did it give?
A: 30%

Q: Which inhibition at 0.1 µM does the source give for `CC1=C(c2ccc(C(=O)N3Cc4ccc(C(=O)N5CCN(C)CC5)n4Cc4ccccc43)cc2C)CCCC1O` (stereo not shown) [Example 10, [4-(3-Hydroxy-2-methyl-cyclohex-1-en-1-yl)-3-methyl-phenyl]-[3-(4-methyl-piperazine-1carbonyl)-10,11-dihydro-5H-pyrrolo[2,1-c][1,4]benzodiazepin-10-yl]-methanone] here?
A: -8%

Q: `Cc1cc(C(=O)N2Cc3ccc(C(=O)N4CCCN(C)CC4)n3Cc3ccccc32)ccc1C1=CCCCC1` [Example 13, {10-[4-(1-Cyclohex-1-en-1-yl)-3-methylbenzoyl]-10,11-dihydro-5H-pyrrolo[2,1-c][1,4]benzodiazepin-3-yl}(4-methyl-1,4-diazepan-1-yl)methanone] was tested. Which “V2 % inhibition @ 100 nM” value did it give?
A: 3%

Q: `Cc1cc(C(=O)N2Cc3ccc(C(=O)NCCCN(C)C)n3Cc3ccccc32)ccc1C1=CCCCC1` [Example 14, 10-[4-(1-Cyclohex-1-en-1-yl)-3-methylbenzoyl]-N-[3-(dimethylamino)propyl]-10,11-dihydro-5H-pyrrolo[2,1-c][1,4]benzodiazepine-3-carboxamide] was tested. Which “V2 % inhibition @ 100 nM” value did it give?
A: 5%

Q: How did the “V2 % inhibition @ 100 nM” value turn out when `Cc1cc(C(=O)N2Cc3ccc(C(=O)N(C)CCN(C)C)n3Cc3ccccc32)ccc1C1=CCCCC1` [Example 15, 10-[4-(1-Cyclohex-1-en-1-yl)-3-methylbenzoyl]-N-[2-(dimethylamino)ethyl]-N-methyl-10,11-dihydro-5H-pyrrolo[2,1-c][1,4]benzodiazepine-3-carboxamide] was run?
A: 5%

Q: For `Cc1cc(C(=O)N2Cc3ccc(C(=O)N(C)CCCN(C)C)n3Cc3ccccc32)ccc1C1=CCCCC1` [Example 16, 10-[4-(1-Cyclohex-1-en-1-yl)-3-methylbenzoyl]-N-[3-(dimethylamino)propyl]-N-methyl-10,11-dihydro-5H-pyrrolo[2,1-c][1 ,4]benzodiazepine-3-carboxamide], which “V2 % inhibition @ 100 nM” value is on record?
A: 10%

Q: How did the “V2 % inhibition @ 100 nM” value turn out when `Cc1cc(C(=O)N2Cc3ccc(C(=O)N4CCC(N5CCCCC5)CC4)n3Cc3ccccc32)ccc1C1=CCCCC1` [Example 17, {10-[4-(1-Cyclohex-1-en-1-yl)-3-methylbenzoyl]-10,11-dihydro-5H-pyrrolo[2,1-c][1,4]benzodiazepin-3-yl}[4-(1-piperidinyl)-1-piperidinyl]methanone] was run?
A: 2%

Q: How did the “V2 % inhibition @ 100 nM” value turn out when `Cc1cc(C(=O)N2Cc3ccc(C(=O)NCCCn4ccnc4)n3Cc3ccccc32)ccc1C1=CCCCC1` [Example 18, 10-[4-(1-Cyclohex-1-en-1-yl)-3-methylbenzoyl]-N-[3-(1H-imidazol-1-yl)propyl]10,11-dihydro-5H-pyrrolo[2,1-c][1,4]benzodiazepine-3-carboxamide] was run?
A: 20%

Q: How did the “V2 % inhibition @ 100 nM” value turn out when `Cc1cc(C(=O)N2Cc3ccc(C(=O)N4CCC(N5CCCC5)CC4)n3Cc3ccccc32)ccc1C1=CCCCC1` [Example 19, {10-[4-(1-Cyclohex-1-en-1-yl)-3-methylbenzoyl]-10,11-dihydro-5H-pyrrolo[2,1c][1,4]benzodiazepin-3-yl}[4-(1-pyrrolidinyl)-1-piperidinyl]methanone] was run?
A: 18%

Q: Which “V2 % inhibition @ 100 nM” value does the source give for `Cc1cc(C(=O)N2Cc3ccc(C(=O)NCCN4CCCCC4)n3Cc3ccccc32)ccc1C1=CCCCC1` [Example 20, 10-[4-(1-Cyclohex-1-en-1-yl)-3-methylbenzoyl]-N-[2-(1-piperidinyl)ethyl]-10,11-dihydro-5H-pyrrolo[2,1-c][1,4]benzodiazepine-3-carboxamide] here?
A: 14%

Q: Which “V2 % inhibition @ 100 nM” value does the source give for `Cc1cc(C(=O)N2Cc3ccc(C(=O)NCCC4CCCN4C)n3Cc3ccccc32)ccc1C1=CCCCC1` (stereo not shown) [Example 21, 10-[4-(1-Cyclohex-1-en-1-yl)-3-methylbenzoyl]-N-[2-(1-methyl-2-pyrrolidinyl)ethyl]-10,11-dihydro-5H-pyrrolo[2,1-c][1,4]benzodiazepine-3-carboxamide] here?
A: 11%

Q: Which “V2 % inhibition @ 100 nM” value does the source give for `Cc1cc(C(=O)N2Cc3ccc(C(=O)N4CCN(CCN(C)C)CC4)n3Cc3ccccc32)ccc1C1=CCCCC1` [Example 22, {10-[4-(1-Cyclohex-1-en-1-yl)-3-methylbenzoyl]-10,11-dihydro-5H-pyrrolo[2,1-c][1,4]benzodiazepin-3-yl}{4-[2-(dimethylamino)ethyl]-1-piperazinyl}methanone] here?
A: 13%

Q: Which “V2 % inhibition @ 100 nM” value does the source give for `Cc1cc(C(=O)N2Cc3ccc(C(=O)N4CCN(CCN5CCOCC5)CC4)n3Cc3ccccc32)ccc1C1=CCCCC1` [Example 23, {10-[4-(1-Cyclohex-1-en-1-yl)-3-methylbenzoyl]-10,11-dihydro-5H-pyrrolo[2,1-c][1,4]benzodiazepin-3-yl}{4-[2-(4-morpholinyl)ethyl]-1-piperazinyl}methanone] here?
A: 18%

Q: `C=CCN1CCN(C(=O)c2ccc3n2Cc2ccccc2N(C(=O)c2ccc(C4=CCCCC4)c(C)c2)C3)CC1` [Example 24, (4-Allyl-1-piperazinyl){10-[4-(1-cyclohex-1-en-1-yl)-3-methylbenzoyl]-10,11-dihydro-5H-pyrrolo[2,1-c][1,4]benzodiazepin-3-yl}methanone] was tested. Which “V2 % inhibition @ 100 nM” value did it give?
A: 12%

Same assay, conditions: value in parentheses

Q: For `COc1cc(C2=CCCCC2)c(Cl)cc1C(=O)N1Cc2ccc(C(=O)N(C)CCCN(C)C)n2Cc2ccccc21` [Example 3, 10-(5-Chloro-4-cyclohex-1-en-1-yl-2-methoxybenzoyl)-N-[3-(dimethylamino)propyl]-N-methyl-10,11-dihydro-5H-pyrrolo[2,1-c][1,4]benzodiazepine-3-carboxamide citric acid salt], which IC50 is on record?
A: 5.84 µM
